Here are results for one compound from PMC9604255, “Discovery of Simple Diacylhydrazine-Functionalized Cinnamic Acid Derivatives as Potential Microtubule Stabilizers” (International Journal of Molecular Sciences, 2022).

The test system of test [1] is HepG2 cells. The test can be described thus: Cell cycle analysis by flow cytometry. The test is classed as cell-based, human. The following applies: HepG2, 24 μM, 24 h (0 μM: 17.68%). The protocol: The cells in the 6-well plates were carefully collected 24 h after dosing. After the cells were washed with pre-cooled PBS, the pre-cooled 70% ethanol solution was added for fixation (4 °C overnight). After that, the cells were washed with PBS, and incubated with 1 mg/mL RNase A for 30 min at 37 °C). Then, […] PI staining solution was added and incubated in the dark for 30 min at 4 °C. Finally, the cell arrest was analyzed by the FACSCalibur™ flow cytometer (Becton Dickinson Immunocytometry Systems, San Jose, CA, USA) as previously described.
(Flow cytometry measures light scatter and fluorescence of single cells or particles in a stream.)

In test [2] the test system is A549 cancer cells. Briefly: MTT antiproliferative assay, A549. The test is classed as cell-based, human. The settings on record: Homo sapiens, A549; MTT assay after 48 h. The text has this: (§1) An A549 (human non-small cell lung cancer cell line) cell line was purchased from the Shanghai Cell Bank of the Chinese Academy of Sciences; PC-3 (human prostate cancer cell line) cell line was donated by the Key Laboratory of Natural Product Chemistry of the Chinese Academy of Sciences of Guizhou Province; HepG2 (human liver cancer cell line) and NRK 52E (normal rat kidney cell line) cell line was donated by Guizhou Medical University; all cell lines were kept by the laboratory.
(§2) The antiproliferative activity of target compounds against A549, PC-3, HepG2, and NRK-52E were determined by MTT assay, as described in previous articles. The assay was recorded at 490 nm by an Infinite® M200 PRO multimode microplate (Tecan, Männedorf, Switzerland).

Test [3] has as its system cellular microtubule network of HepG2 cells. Briefly: Immunofluorescence staining of tubulin. The test is classed as cell-based, human. The following applies: 3 and 6 μM, 24 h. The protocol:
According to the previous methods, compound solutions of various concentrations were added to a 6-well plate in which HepG2 cells had been seeded for 12 h. After incubation for 24 h and washed with phosphate-buffered saline (PBS, 10 mM, pH 7.3), each well was treated with 4% formaldehyde solution for 15 min and washed with 0.1% Triton X-100 of phosphate-buffered saline (PBS, 10 mM, pH 7.3). After that, the fixed cells were incubated with diluted tubulin-tracker red for 40 min in a dark environment, followed by washing three times by 0.1% Triton X-100 of phosphate-buffered saline (PBS, 10 mM, pH 7.3). Finally, each well was added DAPI (2 μg/mL). Finally, the results were observed using a Nikon ECLIPSE Ti-S fluorescent microscope (Nikon Co, Tokyo, Japan).

Test [4] relates to HepG2 cells. Briefly: Hoechst apoptosis experiment. The test is classed as cell-based, human. The settings on record: HepG2, 6 μM, 24 h. The protocol:
In this assay, HepG2 cells were seeded in 6-well plates, after 24 h of incubation, different compounds were added at various concentrations, and cells were incubated again for 24 h. Afterward, the medium was removed and cells were washed twice with phosphate-buffered saline (PBS, 10 mM, pH 7.3), and fixed with 4% paraformaldehyde for 15 min at room temperature, then stained with […] Hoechst 33258 in PBS for 20 min at 37 °C in the dark. After incubation, the cells were incubated with an anti-fluorescent attenuator and imaged with an inverted fluorescence microscope.

In test [5] the test system is HepG2 cancer cells. The test can be described thus: MTT antiproliferative assay, HepG2. The test is classed as cell-based, human. The following applies: Homo sapiens, HepG2, 48 h, MTT assay after 48 h; read-out: IC50 HepG2.
Excerpt: as §1, §2
Background: Tetrazolium dyes change colour on reduction, which living cells bring about.

Test [6] relates to tubulin. The test can be described thus: Tubulin polymerization via TEM. The test is classed as biochemical. The following applies: 20 μM + 4 mg/mL tubulin. As to the method: Briefly, according to the protocol of tubulin polymerization assay, the 100 μL centrifuge tubes were pre-warmed at 37 °C, and the reaction assay contained 20 μL 4 mg/mL tubulin in G-PEM buffer. Then, 2 μL (10×) compounds solution was added. Finally, the assay was carried out at 37 °C for 30 min. The formed microtubules were transferred to Formvar-caron-coated copper grids, negatively stained with 1% phosphotungstic acid, and visualized under a transmission electron microscope.

The subject of test [7] is A549 cells. The test can be described thus: Scratch test (cell migration). The test is classed as cell-based, human. The protocol: According to the previous methods, A549 cells of the logarithmic growth stage were cultured in 6-well plates with two lines on the back, with each well containing a density of 1 × 10^6 cells/mL. After the cells adhered to the wall, three uniform thin lines were drawn in each well by a sterile pipette tip. Afterward, the medium containing 1% fetal bovine serum (FBS) and various concentrations of compounds were added in wells. After the different time of incubation, the cells were performed by an inverted fluorescence microscope. Then the scratch healing rate was calculated: Migration distance (n h) = edge distance (0 h) − edge distance (12 h or 24 h).

For test [8], the system named is NRK-52E cells. The test can be described thus: MTT cytotoxicity assay, normal NRK-52E cells. The test is classed as cell-based. The settings on record: MTT assay after 48 h, normal rat kidney cell line.
Excerpt: as §1, §2

The target in test [9] is T1, tubulin (Sus scrofa, UniProt P02554).
T1 construct: purchased Cytoskeleton, Inc. BK004P
T1 sequence (P02554 whole entry): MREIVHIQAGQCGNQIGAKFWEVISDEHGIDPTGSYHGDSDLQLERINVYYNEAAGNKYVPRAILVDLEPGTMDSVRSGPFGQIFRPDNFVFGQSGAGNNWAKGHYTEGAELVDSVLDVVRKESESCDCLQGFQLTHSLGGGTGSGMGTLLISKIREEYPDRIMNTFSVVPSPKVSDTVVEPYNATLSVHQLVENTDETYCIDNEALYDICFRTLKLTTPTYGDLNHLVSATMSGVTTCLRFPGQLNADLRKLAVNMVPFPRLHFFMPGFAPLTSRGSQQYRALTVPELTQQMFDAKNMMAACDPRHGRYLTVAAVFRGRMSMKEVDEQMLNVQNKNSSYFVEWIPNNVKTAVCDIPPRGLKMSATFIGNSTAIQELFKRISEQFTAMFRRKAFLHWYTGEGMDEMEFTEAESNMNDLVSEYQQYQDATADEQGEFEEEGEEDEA
T1 sequence (P02550 whole entry partner): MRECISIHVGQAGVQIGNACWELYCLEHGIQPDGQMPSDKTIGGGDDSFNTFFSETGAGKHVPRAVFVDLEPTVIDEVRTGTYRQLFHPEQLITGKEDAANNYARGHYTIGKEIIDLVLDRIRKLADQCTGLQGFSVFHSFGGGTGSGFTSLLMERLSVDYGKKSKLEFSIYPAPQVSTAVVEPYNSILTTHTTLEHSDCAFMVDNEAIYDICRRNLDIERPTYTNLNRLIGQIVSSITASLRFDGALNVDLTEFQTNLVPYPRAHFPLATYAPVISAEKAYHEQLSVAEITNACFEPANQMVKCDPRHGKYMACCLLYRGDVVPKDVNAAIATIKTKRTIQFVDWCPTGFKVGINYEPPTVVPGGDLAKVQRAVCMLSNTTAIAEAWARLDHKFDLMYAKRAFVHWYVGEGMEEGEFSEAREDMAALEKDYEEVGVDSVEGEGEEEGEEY
Briefly: Tubulin polymerization assay in vitro. The test is classed as biochemical. The settings on record: 10 μM and 20 μM; 4 mg/mL tubulin, 37 °C, 340 nm. The protocol:
The tubulin polymerization assay in vitro was determined by HTS-Tubulin Polymerization Assay Kit (#BK004P, Cytoskeleton, Inc., Denver, CO, USA) as described in previous articles. The plate was pre-warmed at 37 °C, and the reaction assay contained 100 μL 4 mg/mL tubulin in G-PEM buffer. Then, 10 μL (10×) compounds solution or 100 μM paclitaxel solution as a control. Finally, the polymerization was carried out at 37 °C and recorded at 340 nm each 10 s for 70 min using Cytation™ 5 multi-mode readers.

Test [10] deals with PC-3 cancer cells. Briefly: MTT antiproliferative assay, PC-3. The test is classed as cell-based, human. The settings on record: Homo sapiens; MTT assay after 48 h.
Excerpt: as §1, §2

For test [11], the system named is A549, PC-3 and HepG2 cancer cell lines. Briefly: MTT antiproliferative assay, three cancer lines together. The test is classed as cell-based. The following applies: Homo sapiens; range over A549, PC-3 and HepG2; read-out: IC50 values against three cancer lines. The text has this:
An A549 (human non-small cell lung cancer cell line) cell line was purchased from the Shanghai Cell Bank of the Chinese Academy of Sciences; PC-3 (human prostate cancer cell line) cell line was donated by the Key Laboratory of Natural Product Chemistry of the Chinese Academy of Sciences of Guizhou Province; HepG2 (human liver cancer cell line) and NRK 52E (normal rat kidney cell line) cell line was donated by Guizhou Medical University; all cell lines were kept by the laboratory. Cells were maintained in RPMI 1640 or DMEM complete medium.
The antiproliferative activity of target compounds against A549, PC-3, HepG2, and NRK-52E were determined by MTT assay, as described in previous articles. The assay was recorded at 490 nm by an Infinite® M200 PRO multimode microplate (Tecan, Männedorf, Switzerland). Curcumin, gefitinib, and colchicine were used as positive controls.

For orientation: IC50 means the concentration that inhibits the measured activity by half. Consider `COc1cccc(/C=C/C(=O)NNC(=O)/C=C/c2ccc([N+](=O)[O-])cc2)c1` [I23], for which the “Percentage of cell, G2/M” value in test [1] amounted to 20.56%. Moreover, the IC50 is 5.99 ± 1.07 µM in test [2]; 3.36 ± 0.8 µM in test [5]; 6.99 ± 1.6 µM in test [8]; 4.17 ± 0.57 µM in [10]; 3.36 to 5.99 µM in test [11]. In test [3], the “Effect on cellular microtubule network (immunofluorescence)” value was “agminated microtubule network and wrinkled nucleus were observed”. Also, the “Apoptosis effect (Hoechst 33258 staining)” value in [4] is on record as “a strong apoptotic phenomenon happened”. Moreover, the “Effect on tubulin polymerization seen by TEM” value in test [6] was “more large nonlinear disorganized aggregations”. Moreover, the “Cell relative migration (migration rate)” value in test [7] (A549, 3 μM, 12 h (control 12.5%)) is 8.93%; in [7] (A549, 3 μM, 24 h (control 24.4%)), 18.7%; in test [7] (A549, 6 μM, 12 h (control 12.5%)) it was 6.07%; in [7] (A549, 6 μM, 24 h (control 24.4%)), 13.2%. The “Effect on tubulin polymerization” value in [9] is “could stabilize tubulin assembly and promote protofilament assembly in a dosage-dependent manner”.
